Source: the NIST ThermoML archive (doi:10.1016/j.jct.2004.11.005)
Numbers after ± are expanded uncertainties.

Assay: activity coefficient (dimensionless); of the first substance listed, at infinite dilution; xn = mol fraction of the nth substance listed
Conditions: Liquid, x1 = 0

SMILES	activity coefficient (270.02 K)	activity coefficient (280 K)	activity coefficient (290 K)	activity coefficient (300 K)	activity coefficient (310 K)	activity coefficient (330 K)	activity coefficient (310.01 K)	activity coefficient (320 K)	activity coefficient (269.99 K)	other results
C=CC=C [1,3-butadiene] + CCC(O)CC	3.03 ± 0.09	2.92 ± 0.09	2.75 ± 0.08	2.63 ± 0.08						activity coefficient (259.98 K): 3.18 ± 0.1
C=CC=C [1,3-butadiene] + CCCC(C)O			2.68 ± 0.08		2.47 ± 0.07	2.27 ± 0.07				activity coefficient (249.94 K): 3.01 ± 0.09; activity coefficient (269.98 K): 2.89 ± 0.09
C=CC=C [1,3-butadiene] + CCCCCO			2.5 ± 0.08		2.46 ± 0.07	2.33 ± 0.07				activity coefficient (249.97 K): 2.5 ± 0.08; activity coefficient (270.01 K): 2.51 ± 0.08
C=CCC [1-butene] + CCC(O)CC	3.16 ± 0.09	3.05 ± 0.09	2.96 ± 0.09	2.86 ± 0.09		2.49 ± 0.07	2.72 ± 0.08	2.61 ± 0.08		activity coefficient (259.96 K): 3.27 ± 0.1
C=CCC [1-butene] + CCCC(C)O			2.86 ± 0.09		2.69 ± 0.08	2.5 ± 0.08			3.03 ± 0.09	activity coefficient (249.94 K): 3.04 ± 0.09
C=CCC [1-butene] + CCCCCO			2.82 ± 0.08		2.78 ± 0.08	2.7 ± 0.08			2.87 ± 0.09	activity coefficient (249.96 K): 2.88 ± 0.09
CC(C)C [2-methylpropane] + CCC(O)CC	3.62 ± 0.11	3.53 ± 0.11	3.45 ± 0.1	3.35 ± 0.1			3.22 ± 0.1	3.09 ± 0.09		activity coefficient (259.96 K): 3.66 ± 0.11; activity coefficient (330.01 K): 2.98 ± 0.09
CC(C)C [2-methylpropane] + CCCC(C)O			3.49 ± 0.1		3.3 ± 0.1	3.1 ± 0.09				activity coefficient (250.01 K): 3.66 ± 0.11; activity coefficient (269.96 K): 3.61 ± 0.11
C/C=C/C [(E)-2-butene] + CCC(O)CC	3.06 ± 0.09	2.96 ± 0.09	2.88 ± 0.09	2.77 ± 0.08			2.67 ± 0.08	2.54 ± 0.08		activity coefficient (259.96 K): 3.12 ± 0.09; activity coefficient (330.01 K): 2.5 ± 0.08
C/C=C/C [(E)-2-butene] + CCCC(C)O			2.81 ± 0.08		2.65 ± 0.08	2.49 ± 0.07			2.91 ± 0.09	activity coefficient (249.94 K): 2.9 ± 0.09
C/C=C/C [(E)-2-butene] + CCCCCO			2.76 ± 0.08		2.76 ± 0.08	2.69 ± 0.08			2.8 ± 0.08	activity coefficient (249.96 K): 2.8 ± 0.08
CCCC [butane] + CCC(O)CC	3.4 ± 0.1	3.36 ± 0.1	3.26 ± 0.1	3.15 ± 0.09			3.04 ± 0.09	2.92 ± 0.09		activity coefficient (259.98 K): 3.48 ± 0.1; activity coefficient (330.01 K): 2.79 ± 0.08
CCCC [butane] + CCCC(C)O			3.24 ± 0.1		3.11 ± 0.09	2.94 ± 0.09				activity coefficient (249.93 K): 3.4 ± 0.1; activity coefficient (269.96 K): 3.38 ± 0.1
CCCC [butane] + CCCCCO			3.31 ± 0.1		3.27 ± 0.1	3.19 ± 0.1				activity coefficient (249.97 K): 3.43 ± 0.1; activity coefficient (270.01 K): 3.33 ± 0.1

Now from value to compound, other results behind:

activity coefficient (270.02 K)	activity coefficient (280 K)	activity coefficient (290 K)	activity coefficient (300 K)	activity coefficient (310 K)	activity coefficient (330 K)	activity coefficient (310.01 K)	activity coefficient (320 K)	activity coefficient (269.99 K)	SMILES	other results
		3.56 ± 0.11		3.51 ± 0.11	3.4 ± 0.1				CC(C)C [2-methylpropane] + CCCCCO	activity coefficient (249.97 K): 3.65 ± 0.11; activity coefficient (270.01 K): 3.59 ± 0.11
3.15 ± 0.09	3.04 ± 0.09	2.93 ± 0.09	2.82 ± 0.08			2.69 ± 0.08	2.56 ± 0.08		C=C(C)C [2-methylpropene] + CCC(O)CC	activity coefficient (259.96 K): 3.25 ± 0.1; activity coefficient (330.01 K): 2.43 ± 0.07
		2.82 ± 0.08		2.63 ± 0.08	2.45 ± 0.07				C=C(C)C [2-methylpropene] + CCCC(C)O	activity coefficient (249.94 K): 3.1 ± 0.09; activity coefficient (269.98 K): 2.99 ± 0.09
		2.82 ± 0.08		2.76 ± 0.08	2.63 ± 0.08				C=C(C)C [2-methylpropene] + CCCCCO	activity coefficient (249.97 K): 2.86 ± 0.09; activity coefficient (270.01 K): 2.84 ± 0.09
3.21 ± 0.1	3.14 ± 0.09	3.09 ± 0.09	3.01 ± 0.09		2.72 ± 0.08	2.9 ± 0.09	2.81 ± 0.08		CCC [propane] + CCC(O)CC	activity coefficient (259.96 K): 3.27 ± 0.1
		3.08 ± 0.09		3.05 ± 0.09	3 ± 0.09			3.07 ± 0.09	CCC [propane] + CCCCCO	activity coefficient (249.96 K): 3.08 ± 0.09
2.87 ± 0.09	2.82 ± 0.08	2.74 ± 0.08	2.63 ± 0.08			2.53 ± 0.08	2.42 ± 0.07		C=CC [propene] + CCC(O)CC	activity coefficient (259.94 K): 2.97 ± 0.09; activity coefficient (330.01 K): 2.32 ± 0.07
		2.66 ± 0.08		2.53 ± 0.08	2.37 ± 0.07			2.77 ± 0.08	C=CC [propene] + CCCC(C)O	activity coefficient (249.93 K): 2.79 ± 0.08
		2.6 ± 0.08		2.59 ± 0.08	2.51 ± 0.08			2.59 ± 0.08	C=CC [propene] + CCCCCO	activity coefficient (249.96 K): 2.59 ± 0.08
